Type in all cases: cell-based
For experiment [1], the target named is T1, CFTR ΔF508 mutant (Homo sapiens, UniProt P13569, DEL508-508).
T1 construct: expressed in transfected cells; host or cells: CFBE41o- cells, adenoviral transduction
Put plainly: YFP-halide influx assay for the CFTR-ΔF508 mutation (CFBE41o- cells). To be noted: forskolin 10.67 μM; for pEC50: from (1−F/F0) vs concentration plot. Summed up:
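EC50 derived from plotting 1−F/F0 (fluorescence 36 s after iodide injection over pre-injection value) against compound concentration. Cells: CFBE41o- transduced with ΔF508-CFTR and YFP quench reporter, corrected 24 h at 27° C or by a CFTR modulator at 37° C.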

The target of experiment [2] is T2, CFTR G551D mutant (Homo sapiens, UniProt P13569, G551D).
T2 construct: expressed in transfected cells; host or cells: HEK293 cells, reverse transfection with plasmids
Put plainly: YFP-halide influx assay for the CFTR-G551D mutation (HEK293 cells). To be noted: forskolin 10.67 μM. Summed up:
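Channel opening read as I⁻-driven quenching of a YFP H148Q/I152L/F47L reporter over 7 s post-injection, expressed as 1−F/F0 and fitted against concentration for EC50. Cells were HEK293 co-transfected at seeding with G551D CFTR plus reporter, then grown 24 h at 37 °C, 5% CO2.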

Experiment [3] has as its target T3, CFTR-G178R (Homo sapiens, UniProt P13569, G178R).
T3 construct: expressed in transfected cells
In words: YFP-halide influx assay for the CFTR-G178R. From the text:
(§1) The YFP halide influx assay measured the functionality of the cystic fibrosis Transmembrane Conductance regulator (CFTR) channels. The assay was used to evaluate the capacity of compounds to increase the channel opening of existing mutant CFTR channels in the membrane. It makes use of the observation that the yellow fluorescent protein (YFP) variant YFP H148Q, I152L, F47L has its fluorescence substantially quenched by halide ions like Cl^− and I^− (Galietta, L. J. V., Haggie, P. M., Verkman, A. S., 2001. Green fluorescent protein-based halide indicators with improved chloride and iodide affinities. FEBS Lett. 499, 220-224. doi:10.1016/S0014-5793(01)02561-3).
(§2) For this purpose, HEK293-cells were seeded in 96 well plates. During seeding, the cells were reverse-transfected with plasmid vectors that direct the expression of the CFTR G551D mutant and of the YFP reporter. Cells were incubated at 37° C., 5% CO2 for 24 hours so as to allow for sufficient expression of the CFTR protein.
(§3) The I^−-induced quenching of fluorescence was recorded immediately after injection of I^− for 7 seconds. The capacity of a compound to increase the channel opening was directly correlated with the decrease in fluorescence, and was expressed as (1−(fluorescence after 7 seconds (F)/fluorescence before injection (F0))) and an EC50 was derived from a (1−F/F0) vs compound concentration plot.
(§4) Similar YHA assays were developed for other channel gating defective or channel conductance defective CFTR mutants to determine effect of compound on channel activity. Examples of mutants are G178R, G1349D, S549N, R117H, R334W. This assay is also used for additional class I CFTR mutants, including G542X, W1282X; class II mutants including N1303K, and for class III mutants including S1251N; or wild-type CFTR.

The target in experiment [4] is T4, CFTR-G1349D (Homo sapiens, UniProt P13569, G1349D).
T4 construct: expressed in transfected cells
In words: YFP-halide influx assay for the CFTR-G1349D.
Excerpt: as §1, §2, §3, §4

For experiment [5], the target named is T5, CFTR-S549N (Homo sapiens, UniProt P13569, S549N).
T5 construct: expressed in transfected cells
Put plainly: YFP-halide influx assay for the CFTR-S549N. Set-up: % Activation: concentration or dose not given beside the values.
Excerpt: as §1, §2, §3, §4

The target of experiment [6] is T6, CFTR-R117H (Homo sapiens, UniProt P13569, R117H).
T6 construct: expressed in transfected cells
Put plainly: YFP-halide influx assay for the CFTR-R117H.
Excerpt: as §1, §2, §3, §4

The structures appear in SMILES notation. pEC50: −log10 of the molar value.

One may read the pEC50 as −log10 of the EC50, conventionally taken in molar units.

T3 sequence (P13569 whole entry G178R): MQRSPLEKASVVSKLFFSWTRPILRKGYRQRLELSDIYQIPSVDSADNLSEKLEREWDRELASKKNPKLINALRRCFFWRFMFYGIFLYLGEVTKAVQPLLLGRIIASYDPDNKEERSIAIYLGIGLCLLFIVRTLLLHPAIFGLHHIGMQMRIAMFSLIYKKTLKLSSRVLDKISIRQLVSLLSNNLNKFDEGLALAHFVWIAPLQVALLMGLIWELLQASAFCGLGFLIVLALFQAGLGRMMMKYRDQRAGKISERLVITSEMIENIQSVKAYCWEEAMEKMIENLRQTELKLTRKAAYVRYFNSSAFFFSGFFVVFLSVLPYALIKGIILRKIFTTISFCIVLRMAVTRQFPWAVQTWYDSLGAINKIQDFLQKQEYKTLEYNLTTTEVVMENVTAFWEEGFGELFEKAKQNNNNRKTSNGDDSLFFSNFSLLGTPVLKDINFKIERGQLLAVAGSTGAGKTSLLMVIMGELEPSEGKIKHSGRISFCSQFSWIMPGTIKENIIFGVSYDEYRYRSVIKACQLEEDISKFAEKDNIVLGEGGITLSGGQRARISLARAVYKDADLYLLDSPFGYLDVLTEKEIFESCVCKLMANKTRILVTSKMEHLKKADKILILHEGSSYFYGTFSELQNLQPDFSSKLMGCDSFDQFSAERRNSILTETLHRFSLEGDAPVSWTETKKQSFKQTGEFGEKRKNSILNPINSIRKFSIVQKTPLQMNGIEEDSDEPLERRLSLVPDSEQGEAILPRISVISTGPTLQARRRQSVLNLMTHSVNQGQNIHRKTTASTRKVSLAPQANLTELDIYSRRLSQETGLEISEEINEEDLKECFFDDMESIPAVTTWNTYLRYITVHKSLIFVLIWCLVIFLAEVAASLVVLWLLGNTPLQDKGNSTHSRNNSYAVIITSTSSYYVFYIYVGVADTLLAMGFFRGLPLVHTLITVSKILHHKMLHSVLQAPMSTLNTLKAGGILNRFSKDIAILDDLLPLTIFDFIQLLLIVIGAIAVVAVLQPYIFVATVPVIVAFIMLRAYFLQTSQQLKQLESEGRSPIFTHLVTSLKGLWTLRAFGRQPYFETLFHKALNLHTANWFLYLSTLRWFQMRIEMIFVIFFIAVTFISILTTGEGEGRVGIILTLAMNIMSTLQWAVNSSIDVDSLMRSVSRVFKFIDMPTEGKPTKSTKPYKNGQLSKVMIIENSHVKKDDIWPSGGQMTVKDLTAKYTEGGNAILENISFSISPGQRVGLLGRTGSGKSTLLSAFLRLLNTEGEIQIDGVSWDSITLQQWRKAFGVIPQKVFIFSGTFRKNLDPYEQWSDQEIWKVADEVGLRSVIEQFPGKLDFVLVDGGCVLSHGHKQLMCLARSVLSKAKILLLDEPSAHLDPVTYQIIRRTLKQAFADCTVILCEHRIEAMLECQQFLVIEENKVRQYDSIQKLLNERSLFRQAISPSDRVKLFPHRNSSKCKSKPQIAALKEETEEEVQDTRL
T2 sequence (P13569 whole entry G551D): as the sequence (P13569 whole entry G178R) above, with R178G, G551D counted along it
T5 sequence (P13569 whole entry S549N): as the sequence (P13569 whole entry G178R) above, with R178G, S549N counted along it
T6 sequence (P13569 whole entry R117H): as the sequence (P13569 whole entry G178R) above, with R117H, R178G counted along it
T4 sequence (P13569 whole entry G1349D): as the sequence (P13569 whole entry G178R) above, with R178G, G1349D counted along it
T1 sequence (P13569 with tags, fused parts or gaps DEL508-508): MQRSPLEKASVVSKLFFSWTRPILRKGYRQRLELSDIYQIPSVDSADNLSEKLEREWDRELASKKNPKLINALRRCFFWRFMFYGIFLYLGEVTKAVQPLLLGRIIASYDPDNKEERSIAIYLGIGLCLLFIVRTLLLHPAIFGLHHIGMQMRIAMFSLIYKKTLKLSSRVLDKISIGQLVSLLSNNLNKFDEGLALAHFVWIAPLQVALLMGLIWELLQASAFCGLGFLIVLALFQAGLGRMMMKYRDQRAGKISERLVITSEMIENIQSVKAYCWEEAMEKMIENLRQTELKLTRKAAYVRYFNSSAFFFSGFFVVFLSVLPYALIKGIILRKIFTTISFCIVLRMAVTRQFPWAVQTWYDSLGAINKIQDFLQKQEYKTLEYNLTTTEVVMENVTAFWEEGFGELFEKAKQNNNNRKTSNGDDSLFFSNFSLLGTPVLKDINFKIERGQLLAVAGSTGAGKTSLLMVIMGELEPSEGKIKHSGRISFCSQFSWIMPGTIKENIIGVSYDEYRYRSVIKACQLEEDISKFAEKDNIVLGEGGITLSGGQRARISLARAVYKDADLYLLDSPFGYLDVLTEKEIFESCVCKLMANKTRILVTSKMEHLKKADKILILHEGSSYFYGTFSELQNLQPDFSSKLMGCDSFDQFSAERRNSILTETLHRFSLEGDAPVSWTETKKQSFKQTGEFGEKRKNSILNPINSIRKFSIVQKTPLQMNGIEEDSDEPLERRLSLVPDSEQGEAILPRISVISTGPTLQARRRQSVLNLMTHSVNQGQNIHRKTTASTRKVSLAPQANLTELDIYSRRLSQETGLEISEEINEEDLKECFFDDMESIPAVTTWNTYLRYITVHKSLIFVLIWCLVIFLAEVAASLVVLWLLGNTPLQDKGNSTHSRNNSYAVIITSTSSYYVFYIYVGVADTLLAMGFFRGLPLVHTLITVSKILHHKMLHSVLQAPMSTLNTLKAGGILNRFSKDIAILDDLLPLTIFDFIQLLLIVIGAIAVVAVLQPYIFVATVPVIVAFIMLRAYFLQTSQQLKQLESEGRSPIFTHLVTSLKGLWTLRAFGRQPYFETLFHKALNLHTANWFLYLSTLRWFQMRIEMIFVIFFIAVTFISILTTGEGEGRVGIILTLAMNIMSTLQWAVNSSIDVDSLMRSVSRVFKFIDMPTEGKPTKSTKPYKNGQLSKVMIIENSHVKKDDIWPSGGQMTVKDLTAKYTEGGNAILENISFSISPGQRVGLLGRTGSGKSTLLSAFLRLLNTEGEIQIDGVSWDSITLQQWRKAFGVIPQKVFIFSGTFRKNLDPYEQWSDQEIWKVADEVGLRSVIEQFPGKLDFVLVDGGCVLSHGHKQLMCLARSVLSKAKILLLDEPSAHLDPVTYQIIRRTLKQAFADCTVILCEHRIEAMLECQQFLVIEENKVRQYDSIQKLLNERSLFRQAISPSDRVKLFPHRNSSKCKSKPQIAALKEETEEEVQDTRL

Turning to `Nc1cc(S(=O)(=O)c2ccccc2OC(F)(F)F)cnc1C(=O)NCCO` [Compound 75, 3-amino-N-(2-hydroxyethyl)-5-{[2-(trifluoromethoxy)phenyl]sulfonyl}pyridine-2-carboxamide], the “% Activation” value was determined as 121.0% in experiment [1]; 68.5% in experiment [2]; 94.3% in experiment [3]; 98.7% in experiment [4]; 98.4% in experiment [6]. The negative-log EC50 (pEC50) in experiment [1] was 8.12; in experiment [2], 5.82; in experiment [3], 6.49; in experiment [4], 6.55; in experiment [5] it was 6.60; in experiment [6], 6.33.
In the case of `Nc1cc(S(=O)(=O)c2ccc(F)cc2)cnc1C(=O)N1CC(O)(C(F)(F)F)C1` [Compound 176, {3-amino-5-[(4-fluorophenyl)sulfonyl]pyridin-2-yl}[3-hydroxy-3-(trifluoromethyl)azetidin-1-yl]methanone], the “% Activation” value is recorded as 93.4% in experiment [1]; 46.0% in experiment [2]; 79.1% in experiment [3]; 72.8% in experiment [4]; 92.0% in experiment [5]; 111.0% in experiment [6]. Further, the pEC50 in experiment [1] was 9.00; in experiment [2], 7.16; in experiment [3], 7.90; in experiment [4], 7.53; in experiment [5], 7.59; in experiment [6] it was 7.64.
For the compound `Nc1cc(S(=O)(=O)c2ccccc2OC(F)(F)F)cnc1C(=O)N1CC(F)(F)C1` [Compound 78, (3-amino-5-{[2-(trifluoromethoxy)phenyl]sulfonyl}pyridin-2-yl)(3,3-difluoroazetidin-1-yl)methanone], the “% Activation” value turned out to be 123.0% in experiment [1]; 55.9% in experiment [2]; 73% in experiment [3]; 85.36% in experiment [4]; 80.37% in experiment [5]; 89.74% in experiment [6]. In addition, the pEC50 in experiment [1] is 8.66; in experiment [2] it was 6.22; in experiment [3], 7.24; in experiment [4], 7.28; in experiment [5], 6.94; in experiment [6], 7.23.
With `Nc1cc(S(=O)(=O)c2ccc(OC(F)(F)F)cc2)cnc1C(=O)N[C@@H]1COCC[C@@H]1O` (racemic) [Compound 33, rac-3-amino-N-[(3R,4S)-4-hydroxytetrahydro-2H-pyran-3-yl]-5-{[4-(trifluoromethoxy)phenyl]sulfonyl}pyridine-2-carboxamide], the “% Activation” value turned out to be 98.6% in experiment [1]; 62.3% in experiment [2]; 81.8% in experiment [3]; 92.9% in experiment [4]; 82.2% in experiment [5]; 87.1% in experiment [6]. For the same compound, the pEC50 in experiment [1] was 7.37; in experiment [2], 5.86; in experiment [3], 6.29; in experiment [4], 6.27; in experiment [5] it was 6.13; in experiment [6], 6.20.
As to `Nc1cc(S(=O)(=O)c2ccc(C(F)(F)F)cc2)cnc1C(=O)N1CC(OCC(F)F)C1` [Compound 231, (3-amino-5-{[4-(trifluoromethyl)phenyl]sulfonyl}pyridin-2-yl)[3-(2,2-difluoroethoxy)azetidin-1-yl]methanone], the “% Activation” value in experiment [1] is given as 103.3%; in experiment [2] it was 59.2%; in experiment [3] it was 98.4%; in experiment [4] it was 83.9%; in experiment [5], 88.2%; in experiment [6] it was 91.3%. In addition, the pEC50 in experiment [1] was 7.28; in experiment [2] it was 6.35; in experiment [3], 6.52; in experiment [4], 6.89; in experiment [5], 6.59; in experiment [6] it was 6.35.
For `Nc1cc(S(=O)(=O)c2ccc(OC(F)(F)F)cc2)cnc1C(=O)N1CC(O)(C2CC2)C1` [Compound 86, (3-amino-5-{[4-(trifluoromethoxy)phenyl]sulfonyl}pyridin-2-yl)(3-cyclopropyl-3-hydroxyazetidin-1-yl)methanone], the “% Activation” value in experiment [1] was determined as 122.0%; in experiment [2] it was 69.3%; in experiment [3], 78.08%; in experiment [4], 85.79%; in experiment [5], 98.52%; in experiment [6], 89.91%. Besides, the pEC50 was 8.51 in experiment [1]; 6.48 in experiment [2]; 7.49 in experiment [3]; 7.26 in experiment [4]; 6.86 in experiment [5]; 7.23 in experiment [6].
On to `COCC(O)CNC(=O)c1ncc(S(=O)(=O)c2ccccc2OC(F)(F)F)cc1N` (centres unmarked) [Compound 80, 3-amino-N-(2-hydroxy-3-methoxypropyl)-5-{[2-(trifluoromethoxy)phenyl]sulfonyl}pyridine-2-carboxamide], for which the “% Activation” value in experiment [1] is 102.0%; in experiment [2], 95.1%; in experiment [3], 95.08%; in experiment [4], 98.43%; in experiment [5], 108.5%; in experiment [6], 111.5%. The pEC50 is 8.49 in experiment [1]; 6.02 in experiment [2]; 7.09 in experiment [3]; 6.93 in experiment [4]; 6.84 in experiment [5]; 6.39 in experiment [6].
Regarding `COC[C@H](O)CNC(=O)c1ncc(S(=O)(=O)c2ccccc2OC(F)(F)F)cc1N` [Compound 177, 3-amino-N-[(2R)-2-hydroxy-3-methoxypropyl]-5-{[2-(trifluoromethoxy)phenyl]sulfonyl}pyridine-2-carboxamide], the “% Activation” value is listed as 102.1% in experiment [1]; 91.4% in experiment [2]; 104.0% in experiment [3]; 96.0% in experiment [4]; 104.0% in experiment [5]; 103.7% in experiment [6]. In addition, the pEC50 in experiment [1] is 8.44; in experiment [2], 6.37; in experiment [3], 7.11; in experiment [4], 7.01; in experiment [5], 7.09; in experiment [6] it was 6.60.
Consider `Nc1cc(S(=O)(=O)c2ccc(C(F)(F)F)cc2)cnc1C(=O)NC[C@@H](O)C(F)(F)F` [Compound 63, 3-amino-N-[(2R)-3,3,3-trifluoro-2-hydroxypropyl]-5-{[4-(trifluoromethyl)phenyl]sulfonyl}pyridine-2-carboxamide], for which the “% Activation” value in experiment [1] came out at 102.0%; in experiment [2], 60.8%; in experiment [4], 82.8%; in experiment [6] it was 89.3%. Moreover, the negative logarithm of the EC50 (pEC50) in experiment [1] was 8.51; in experiment [2], 6.58; in experiment [4] it was 6.59; in experiment [6], 6.82.
`Nc1cc(S(=O)(=O)c2ccc(C(F)(F)F)cc2)cnc1C(=O)N1CC(F)(F)C1` [Compound 103, (3-amino-5-{[4-(trifluoromethyl)phenyl]sulfonyl}pyridin-2-yl)(3,3-difluoroazetidin-1-yl)methanone]: the “% Activation” value in experiment [1] is listed as 110.0%; in experiment [2], 52.6%; in experiment [4] it was 67.7%; in experiment [6] it was 87.8%. Further, the pEC50 in experiment [1] was 7.58; in experiment [2] it was 6.43; in experiment [4], 6.35; in experiment [6], 6.45.
In the case of `CC(C)NC(=O)CNC(=O)c1ncc(S(=O)(=O)c2ccc(OC(F)(F)F)cc2)cc1N` [Compound 57, 3-amino-N-[2-oxo-2-(propan-2-ylamino)ethyl]-5-{[4-(trifluoromethoxy)phenyl]sulfonyl}pyridine-2-carboxamide], the “% Activation” value in experiment [1] amounted to 93.1%; in experiment [2], 51.8%; in experiment [4], 59.6%; in experiment [6] it was 72.8%. The pEC50 is 8.15 in experiment [1], 6.41 in experiment [2], 6.34 in experiment [4] and 6.45 in experiment [6].
